According to patent US20030088061A1, “Materials and methods to modulate ligand binding/enzymatic activity of alpha/beta proteins containing an allosteric regulatory site” (priority 2000, published 2003):

What was measured:
α4β7 = biological target: T1, α4β7 (Homo sapiens, UniProt P13612+P26010); assay: JY/α4β7 cell adhesion to MAdCAM-1/Ig; format: cell-based; conditions: PMA-treated JY cells
T1 construct: endogenous in cells; host or cells: JY cells
Protocol: (§1) To assess the selectivity of each compound, an IC50 value was determined for additional binding partner compounds JY/αVβ3 and vitronectin, JY/α4β1 and VCAM/Ig, JY/αdβ2 and VCAM, JY/[…] and ICAM-1, JY/αMβ2 and iC3b, and JY/α4β7 and MAdCAM-1.
(§2) For each IC50 assay, 50 μl of the ligand diluted in 50 mM bicarbonate buffer (pH 9.6) was dispensed per well of an Immulon-4 plate. A single plate was used to test two different ligands, each in triplicate, The coating concentration for the various ligands was as follows: VCAM-1/Ig at 2.0 μg/ml; ICAM-1/Ig at 5.0 μg/ml; vitronectin at 0.5 μg/ml; MAdCAM-1/Ig at 3.0 μg/ml, and iC3b at 5.0 μg/ml. The capture antibody, e.g. anti-CD18 monoclonal antibody TS1/22, was added at a concentration of 10 μg/ml in 50 μl/well. Ligand-coated plates were covered and stored overnight at 4° C. The following day, the contents of each well was decanted, and each plate was washed three times with 200 μl/well D-PBS. The plate was then blocked by the addition of 300 μl/well of 1% BSA/D-PBS solution. Each plate was again covered and incubated at room temperature for at least 1 hour.
Prior to transfer to the adhesion plate, the compounds were initially diluted by transferring 4.2 μl of the diluted compounds to a 96-well deepwell titer plate containing 0.7 ml/well of RPMI 1640, 0.1% BSA, and 3 ng/ml PMA (Sigma Corp., St. Louis, Mo.) pre-warmed to 37° C. The 1% BSA/D-PBS blocking solution was decanted from the 96-well Immulon-4 plates and replaced with 0.2 ml of diluted compound. For each 96-well plate to be screened, approximately 8×10^6 cells were collected by centrifugation and resuspended in adhesion media (RPMI 1640 containing 0.1% BSA) to a final concentration of 10^6/ml. To prevent PMA-dependent homotypic aggregation in the adhesion assay, the anti-CD18 antibody 22F12C (ICOS Corp., Bothell, Wash.) was added to the cell suspensions to a final concentration of 10 μg/ml, and the cells were incubated at 37° C. for 15 min. This antibody was not added to CD18-dependent adhesion assays involving JY/αLβ2, JY/αdβ2 or JY/αMβ2 and their corresponding ligands ICAM-1, VCAM-1, or iC3b.
(§3) The adhesion assay was initiated by addition of 100 μl of the cell suspension to each well of the Immulon-4 plate. […] Adherent cells were quantitated by determining the absorbance at 570 nm in a plate spectrophotometer. The percentage of cell binding was determined by using the mean values for each triplicate in a given assay and the formula below. […]
(§4) The four compounds Cmpd K, Cmpd W, Cmpd Z, Cmpd D identified in the primary screen were selected for further specificity profiling, whereby their IC50 values were determined in additional integrin-dependent adhesive events. […]

αMβ2 = biological target: T2, αMβ2 (Homo sapiens, UniProt P05107+P11215); assay: JY/αMβ2 cell adhesion to iC3b; format: cell-based; conditions: PMA-treated JY cells
T2 construct: expressed in transfected cells; host or cells: JY (human B lymphoblastoid) cells
Protocol: as §1, §2
Prior to transfer to the adhesion plate, the compounds were initially diluted by transferring 4.2 μl of the diluted compounds to a 96-well deepwell titer plate containing 0.7 ml/well of RPMI 1640, 0.1% BSA, and 3 ng/ml PMA (Sigma Corp., St. Louis, Mo.) pre-warmed to 37° C. The 1% BSA/D-PBS blocking solution was decanted from the 96-well Immulon-4 plates and replaced with 0.2 ml of diluted compound. […]
as §3, §4

T1 sequence (P13612 34-1032): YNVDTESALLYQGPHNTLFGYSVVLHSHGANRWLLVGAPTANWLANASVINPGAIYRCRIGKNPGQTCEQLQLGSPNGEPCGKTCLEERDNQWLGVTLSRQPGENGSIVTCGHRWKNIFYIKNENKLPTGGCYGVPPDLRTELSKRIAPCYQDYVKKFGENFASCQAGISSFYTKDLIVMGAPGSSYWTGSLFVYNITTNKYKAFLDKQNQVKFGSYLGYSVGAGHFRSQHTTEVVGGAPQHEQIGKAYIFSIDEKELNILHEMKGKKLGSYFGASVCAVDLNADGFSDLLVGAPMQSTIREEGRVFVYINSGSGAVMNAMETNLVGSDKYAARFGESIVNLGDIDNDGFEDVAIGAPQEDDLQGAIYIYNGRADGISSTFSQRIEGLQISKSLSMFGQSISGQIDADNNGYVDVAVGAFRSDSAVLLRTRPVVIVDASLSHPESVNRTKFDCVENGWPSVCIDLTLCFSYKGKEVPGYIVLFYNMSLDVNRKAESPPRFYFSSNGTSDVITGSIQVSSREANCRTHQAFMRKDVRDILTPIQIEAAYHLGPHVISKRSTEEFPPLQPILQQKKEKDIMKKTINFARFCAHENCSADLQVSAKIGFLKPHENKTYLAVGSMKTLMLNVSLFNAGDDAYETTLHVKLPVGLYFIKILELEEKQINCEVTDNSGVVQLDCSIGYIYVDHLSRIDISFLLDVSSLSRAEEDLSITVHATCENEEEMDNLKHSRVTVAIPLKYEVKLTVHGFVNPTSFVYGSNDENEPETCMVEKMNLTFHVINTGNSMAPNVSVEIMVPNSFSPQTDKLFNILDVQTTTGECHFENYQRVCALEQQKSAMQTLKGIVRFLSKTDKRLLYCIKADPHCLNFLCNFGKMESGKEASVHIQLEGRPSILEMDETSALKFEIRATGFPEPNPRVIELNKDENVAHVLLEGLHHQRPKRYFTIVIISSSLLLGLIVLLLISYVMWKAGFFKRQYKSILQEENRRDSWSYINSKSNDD
T1 sequence (P26010 20-798): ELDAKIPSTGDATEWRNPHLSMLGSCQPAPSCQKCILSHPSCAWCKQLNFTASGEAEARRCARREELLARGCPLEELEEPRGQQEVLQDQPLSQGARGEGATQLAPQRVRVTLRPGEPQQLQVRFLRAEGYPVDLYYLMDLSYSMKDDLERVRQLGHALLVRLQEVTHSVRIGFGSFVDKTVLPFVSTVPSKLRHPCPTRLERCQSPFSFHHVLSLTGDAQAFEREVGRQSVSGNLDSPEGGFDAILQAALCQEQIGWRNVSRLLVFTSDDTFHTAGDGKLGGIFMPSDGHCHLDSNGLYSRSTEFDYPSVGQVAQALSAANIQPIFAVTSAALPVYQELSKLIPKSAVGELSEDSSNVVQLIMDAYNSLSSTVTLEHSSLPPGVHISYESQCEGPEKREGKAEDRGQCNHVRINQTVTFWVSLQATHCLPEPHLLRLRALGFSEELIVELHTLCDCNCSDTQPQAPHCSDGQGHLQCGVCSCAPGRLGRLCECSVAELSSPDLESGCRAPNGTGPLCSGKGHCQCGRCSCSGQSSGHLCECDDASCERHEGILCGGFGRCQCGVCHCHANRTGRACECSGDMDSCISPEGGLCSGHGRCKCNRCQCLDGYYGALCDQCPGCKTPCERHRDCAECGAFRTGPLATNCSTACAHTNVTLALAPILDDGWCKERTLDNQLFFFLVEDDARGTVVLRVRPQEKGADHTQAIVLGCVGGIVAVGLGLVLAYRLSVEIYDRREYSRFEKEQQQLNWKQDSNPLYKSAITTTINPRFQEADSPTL

Row | Compound | IC50 (α4β7) | IC50 (αMβ2)
1 | CC(=O)Oc1ccccc1C(=O)n1c(-c2ccccc2)cc2ccccc21 [Cmpd D] | 4 µM | 7 µM
2 | O=C(NCc1cccnc1)c1ccccc1C(=O)Nc1sc2ccccc2c1Cl [Cmpd K] | 4 µM | 4 µM
3 | Nc1ccc(Sc2ccc(NC(=O)CCc3ccccc3)cc2)c(Cl)c1 [Cmpd W] | 5 µM | 4 µM
4 | CC(CN(C)C)NCc1ccccc1Sc1ccc(C(C)(C)C)cc1 (stereo not shown) [Cmpd Z] | 11 µM | 
